Experimental data as given in ChEMBL document CHEMBL1201862, “PubChem BioAssay data set” (2004).
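48-hour exposure; five concentrations; linearly interpolated endpoints. Here, GI50 denotes the concentration required for 50% inhibition of growth.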 Activity calls are given as the source filed them. Rule as the data show it: active = GI50 up to about 1.1 µM and inactive = higher.

Experiments:
Assay in all cases: NCI anticancer screen, dose series, 48 h
[1] = tested on: NCI-H522
[2] = tested on: HT-29
[3] = tested on: A549
[4] = tested on: LOX IMVI
[5] = tested on: LXFL 529
[6] = tested on: SN12C
[7] = tested on: EKVX
[8] = tested on: K562
[9] = tested on: COLO 205
[10] = tested on: SF-539
[11] = tested on: DLD-1
[12] = tested on: OVCAR-8
[13] = tested on: SNB-19
[14] = tested on: DMS-114
[15] = tested on: SNB-78
[16] = tested on: CAKI-1
[17] = tested on: SF-295
[18] = tested on: SF-268
[19] = tested on: NCI-H23
[20] = tested on: UACC-257
[21] = tested on: NCI-H226
[22] = tested on: SW-620
[23] = tested on: HOP-92
[24] = tested on: SK-MEL-2
[25] = tested on: CCRF-CEM
[26] = tested on: Malme-3M
[27] = tested on: RXF 631
[28] = tested on: XF498
[29] = tested on: TK-10
[30] = tested on: ACHN
[31] = tested on: IGROV-1
[32] = tested on: SK-MEL-28
[33] = tested on: HL-60
[34] = tested on: UO-31
[35] = tested on: HOP-62
[36] = tested on: KM12
[37] = tested on: 786-0
[38] = tested on: SK-OV-3
[39] = tested on: SR
[40] = tested on: NCI-H460
[41] = tested on: OVCAR-5
[42] = tested on: RXF 393
[43] = tested on: KM-20L2
[44] = tested on: SK-MEL-5
[45] = tested on: UACC-62
[46] = tested on: A498
[47] = tested on: U-251
[48] = tested on: DMS-273
[49] = tested on: MOLT-4
[50] = tested on: OVCAR-4
[51] = tested on: RPMI-8226
[52] = tested on: M14
[53] = tested on: HCT-116
[54] = tested on: HCC 2998
[55] = tested on: M19-MEL
[56] = tested on: HOP-18
[57] = tested on: OVCAR-3
[58] = tested on: SNB-75

Measured: GI50

N#Cc1cccc(C2SCc3nc4ccccc4n32)c1 (stereo unspecified)
inactive: [1] 69.3 µM | [2] > 100 µM | [3] 92.7 µM | [4] > 100 µM | [5] 42.1 µM | [6] 75.9 µM | [7] 67.6 µM | [8] 54.6 µM | [9] > 100 µM | [10] > 100 µM | [11] 65.5 µM | [12] > 100 µM | [13] > 100 µM | [14] 49.4 µM | [15] > 100 µM | [16] 32.4 µM | [17] > 100 µM | [18] > 100 µM | [19] 74.8 µM | [20] 80 µM | [21] 28.9 µM | [22] > 100 µM | [23] 36.3 µM | [24] > 100 µM | [25] > 100 µM | [26] > 100 µM | [27] > 100 µM | [28] 33.6 µM | [29] > 100 µM | [30] 74 µM | [31] 32.9 µM | [32] > 100 µM | [33] 62.8 µM | [34] 61.1 µM | [35] > 100 µM | [36] > 100 µM | [37] > 100 µM | [38] > 100 µM | [39] 38.4 µM | [40] > 100 µM | [41] 48 µM | [42] 80.2 µM | [43] > 100 µM | [44] 19.8 µM | [45] 37.2 µM | [46] 95.9 µM | [47] > 100 µM | [48] > 100 µM | [49] 38.7 µM | [50] 86.7 µM

CCCCCCCCCCCC[N+]12CC[N+](C)(CC1)CC2
inactive: [1] 19.4 µM | [51] 15.8 µM | [2] 16.4 µM | [3] 54.7 µM | [4] 19.4 µM | [5] 25.7 µM | [6] 18.3 µM | [7] > 100 µM | [52] 29.6 µM | [8] 23.8 µM | [9] 5.28 µM | [10] 39.4 µM | [11] 13.8 µM | [12] > 100 µM | [13] 14 µM | [14] 19.9 µM | [15] 26.4 µM | [16] 11.8 µM | [17] 22.3 µM | [18] 18.7 µM | [19] 20.9 µM | [20] > 100 µM | [21] 18.3 µM | [22] 44.3 µM | [23] 14.9 µM | [53] 38.7 µM | [24] 77.8 µM | [25] 18.8 µM | [26] 46.9 µM | [54] 8.09 µM | [28] 20.7 µM | [29] 1.89 µM | [55] 19.5 µM | [30] 55.1 µM | [31] 1.98 µM | [32] > 100 µM | [33] 16.4 µM | [34] > 100 µM | [35] 29.2 µM | [36] 7.31 µM | [37] 13 µM | [56] 43.6 µM | [38] > 100 µM | [39] 6.18 µM | [57] 64.1 µM | [40] 6.38 µM | [41] 17.1 µM | [42] 1.31 µM | [43] 14.9 µM | [44] > 100 µM | [45] 22.6 µM | [47] 15.6 µM | [48] 3.69 µM | [58] 13 µM | [49] 27.9 µM | [50] 44.8 µM
